In patent US20170143647A1, “INTESTINAL FLORA IMPROVING COMPOSITION CONTAINING ASTAXANTHIN AND ITS USE” (THE DOSHISHA, priority 2013, published 2017):
“Also recorded” adds a separate entry of the source.

Legend:
[1] = test system: Clostridium coccoides group; experiment: Real-time PCR of fecal DNA, Clostridium coccoides group; format: in vivo, ICR mice
Method: (§1) A change in intestinal flora when a high-fat diet was fed to mice, and the effect of astaxanthin on intestinal flora were determined using a real-time PCR method.
(§2) The test substance (astaxanthin) was added to an ordinary diet (“Labo MR Stock” manufactured by Nosan Corporation (Nishi-ku, Yokohama)) and a high-fat diet (“HFD-60” Oriental Yeast Co., Ltd. (Itabashi-ku, Tokyo)) so that the content thereof was 0.02%.
(§3) A commercially-available product “AstaReal Oil 50F” (manufactured by Fuji Chemical Industries Co., Ltd.) was used as astaxanthin.
(§4) Twenty 4-week-old ICR mice were respectively kept in different cages, and habituated for 1 week.
(§5) After completion of habituation, the weight of each mouse was measured, and the mice were divided into an ordinary diet group (group C), an ordinary diet+astaxanthin group (group CA), a high-fat diet group (group H), and a high-fat diet+astaxanthin group (group HA) (five mice per group). […]
(§6) The DNA solution was 100-fold diluted (Lactobacillus, Streptococcus, Clostridium coccoides, and Clostridium leptum), and the final concentration was adjusted to […] (other targets). […] The primer sequence was analyzed using the method of Matsuki et al. or Endo et al. […]
(§7) Regarding a comparison as to the presence or absence of astaxanthin, the bacterial count change ratio was analyzed by Mann-Whitney's U test (one-sided test).

[2] = test system: Lactobacillus group (lactic acid bacteria); experiment: Real-time PCR of fecal DNA, Lactobacillus group; format: in vivo, ICR mice
Method: as §1, §2, §3, §4, §5, §6, §7

Clostridium leptum group = experiment: Real-time PCR of fecal DNA, Clostridium leptum group; format: in vivo, ICR mice; conditions: group HA vs group H
Method: as §1, §2, §3, §4
(§8) After completion of habituation, the weight of each mouse was measured, and the mice were divided into an ordinary diet group (group C), an ordinary diet+astaxanthin group (group CA), a high-fat diet group (group H), and a high-fat diet+astaxanthin group (group HA) (five mice per group).
(§9) The feces of the mice were collected over 24 hours on the final day of habituation (Day 0). […]
as §6
(§10) The mean value of each group was analyzed by Tukey's multiple comparison test. […]

[3] = test system: Streptococcus group (lactic acid bacteria); experiment: Real-time PCR of fecal DNA, Streptococcus group; format: in vivo, ICR mice
Method: as §1, §2, §3, §4, §5, §6, §7

[4] = eight-week treatment; cited from earlier work
intestinal flora = experiment: Effect of astaxanthin on intestinal flora of mice fed a high-fat diet (overall); format: in vivo; conditions: intake of astaxanthin, high-fat diet fed to a mouse
Method: A change in intestinal flora when a high-fat diet was fed to mice, and the effect of astaxanthin on intestinal flora were determined using a real-time PCR method. The test substance (astaxanthin) was added to an ordinary diet (“Labo MR Stock” manufactured by Nosan Corporation (Nishi-ku, Yokohama)) and a high-fat diet (“HFD-60” Oriental Yeast Co., Ltd. (Itabashi-ku, Tokyo)) so that the content thereof was 0.02%. A commercially-available product “[…] Oil […]” (manufactured by Fuji Chemical Industries Co., Ltd.) was used as astaxanthin. Twenty 4-week-old ICR mice were respectively kept in different cages, and habituated for 1 week. After completion of habituation, the weight of each mouse was measured, and the mice were divided into an ordinary diet group (group C), an ordinary diet+astaxanthin group (group CA), a high-fat diet group (group H), and a high-fat diet+astaxanthin group (group HA) (five mice per group). The DNA solution was 100-fold diluted (Lactobacillus, Streptococcus, Clostridium coccoides, and Clostridium leptum), and the final concentration was adjusted to […] (other targets). […] The primer sequence was analyzed using the method of Matsuki et al. or Endo et al. The real-time PCR assay was performed on Bacteroides, Bifidobacterium (bifidobacteria), Prevotella, Lactobacillus, Streptococcus, Clostridium coccoides, and Clostridium leptum.

[5] = Change in body weight of mice fed ordinary or high-fat diet with or without astaxanthin; format: in vivo, ICR mice; conditions: 0.02% astaxanthin in ordinary or high-fat diet, weight measured once a week
Method: as §2, §3, §4, §8
The diet was fed to each group from Day 1, and the weight of each mouse was measured once a week.
The ordinary diet was fed once a week, and the high-fat diet was fed every other day (the high-fat diet was returned to room temperature on the day before the feeding).
The mean value of each group was analyzed by Tukey's multiple comparison test.

[6] = test system: bacteria that belong to the genus Bacteroides; experiment: Real-time PCR of fecal DNA, genus Bacteroides; format: in vivo, ICR mice; conditions: group HA (high-fat diet + astaxanthin), Day 14, FIG. 9
Method: as §1, §2, §3, §4, §8, §9, §6, §10

[7] = taken orally; cited from earlier work

CC1=C(/C=C/C(C)=C/C=C/C(C)=C/C=C/C=C(C)/C=C/C=C(C)/C=C/C2=C(C)C(=O)C(O)CC2(C)C)C(C)(C)CC(O)C1=O (stereo not drawn) [astaxanthin, 3,3′-dihydroxy-β,β-carotene-4,4′-dione]
growth of the Clostridium coccoides group ([1]; group H vs HA, Day 14 and Day 28, FIG. 7): suppressed the growth
rate of increase in the bacterial count of the Clostridium coccoides group ([1]; high-fat diet, addition of astaxanthin, p=0.029): decreased
rate of increase in the bacterial count of the Lactobacillus group ([2]; addition of 0.02% astaxanthin to diet, p=0.031): increased
bacterial count of the Lactobacillus group ([2]; group C vs CA and group H vs HA, FIG. 4): increased
bacterial count of the Clostridium leptum group (Clostridium leptum group; Day 14, p<0.001): temporary increase
bacterial count of the Clostridium leptum group (Clostridium leptum group; Day 28): no significant difference
rate of increase in bacterial count of the Streptococcus group, between the high-fat diet groups ([3]; group H vs HA, p=0.044): significant difference
bacterial count of the Streptococcus group ([3]; group HA (high-fat diet + astaxanthin), Day 28): comparable to those of the ordinary diet group; also recorded: increased
efficacy reported in Non-Patent Literature 1 [4]: enhances the antioxidant potential, decreases blood pressure, and improves constipation and a climacteric complaint
effect on intestinal flora (intestinal flora): improves intestinal flora; also recorded: controls the disorder of intestinal flora
change in body weight, groups fed astaxanthin (CA, HA) vs groups not fed astaxanthin (C, H) [5]: No significant difference
bacterial count of bacteria that belong to the genus Bacteroides [6]: did not show such a temporary increase; also recorded: suppressed a temporary increase; also recorded: did not show a significant increase
astaxanthin absorbed in the small intestine [7]: about 5%
